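96-well plates; 48 h exposure; 5 concentrations. Endpoints by linear interpolation between flanking doses. Not reached: highest tested concentration assigned. Here, GI50 denotes the concentration required for 50% inhibition of growth.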 The source made the active and inactive calls. Rule as the data show it: active = GI50 up to about 1.1 µM and inactive = higher.
Tests used:
Assay in all cases: DTP human tumour cell line panel, 48 h
HT-29 = test system: HT-29
SF-295 = test system: SF-295
PC-3 = test system: PC-3
BT-549 = test system: BT-549
UACC-257 = test system: UACC-257
Malme-3M = test system: Malme-3M
OVCAR-4 = test system: OVCAR-4
NCI-H23 = test system: NCI-H23
MDA-MB-435 = test system: MDA-MB-435
ACHN = test system: ACHN
HCT-15 = test system: HCT-15
SF-539 = test system: SF-539
UO-31 = test system: UO-31
A498 = test system: A498
SR = test system: SR
COLO 205 = test system: COLO 205
K562 = test system: K562
U-251 = test system: U-251
OVCAR-8 = test system: OVCAR-8
SW-620 = test system: SW-620
HOP-92 = test system: HOP-92
LOX IMVI = test system: LOX IMVI
MOLT-4 = test system: MOLT-4
HCT-116 = test system: HCT-116
RPMI-8226 = test system: RPMI-8226
SN12C = test system: SN12C
Hs-578T = test system: Hs-578T
MDA-N = test system: MDA-N
UACC-62 = test system: UACC-62
NCI-H522 = test system: NCI-H522
A549 = test system: A549
M14 = test system: M14
NCI/ADR-RES = test system: NCI/ADR-RES
OVCAR-5 = test system: OVCAR-5
SNB-75 = test system: SNB-75
SNB-19 = test system: SNB-19
CCRF-CEM = test system: CCRF-CEM
CAKI-1 = test system: CAKI-1
TK-10 = test system: TK-10
T47D = test system: T47D
786-0 = test system: 786-0
HL-60 = test system: HL-60
SK-MEL-2 = test system: SK-MEL-2
KM12 = test system: KM12
SF-268 = test system: SF-268
IGROV-1 = test system: IGROV-1
MCF7 = test system: MCF7
OVCAR-3 = test system: OVCAR-3
SK-MEL-28 = test system: SK-MEL-28
SK-MEL-5 = test system: SK-MEL-5
RXF 393 = test system: RXF 393
MDA-MB-231 = test system: MDA-MB-231
NCI-H460 = test system: NCI-H460
DU-145 = test system: DU-145
HCC 2998 = test system: HCC 2998
NCI-H226 = test system: NCI-H226
SK-OV-3 = test system: SK-OV-3
HOP-62 = test system: HOP-62
EKVX = test system: EKVX

CCCCCNC(=O)OC1CCn2c1nc1c2C(=O)C(C)=C(N2CC2)C1=O (stereo not given)
GI50 (HT-29): 0.593 µM (active) | GI50 (SF-295): 1.2 µM (inactive) | GI50 (PC-3): 1.05 µM (active) | GI50 (BT-549): 1.67 µM (inactive) | GI50 (UACC-257): 1.67 µM (inactive) | GI50 (Malme-3M): 2.19 µM (inactive) | GI50 (OVCAR-4): 1.3 µM (inactive) | GI50 (NCI-H23): 1.24 µM (inactive) | GI50 (MDA-MB-435): 1.62 µM (inactive) | GI50 (ACHN): 0.548 µM (active) | GI50 (HCT-15): 1.92 µM | GI50 (SF-539): 2 µM (inactive) | GI50 (UO-31): 1.83 µM (inactive) | GI50 (A498): 1.75 µM (inactive) | GI50 (SR): 20.7 µM (inactive) | GI50 (COLO 205): 1.41 µM (inactive) | GI50 (K562): 1.67 µM (inactive) | GI50 (U-251): 1.67 µM (inactive) | GI50 (OVCAR-8): 1.46 µM (inactive) | GI50 (SW-620): 0.492 µM (active) | GI50 (HOP-92): 21.4 µM (inactive) | GI50 (LOX IMVI): 0.229 µM (active) | GI50 (MOLT-4): 10.7 µM (inactive) | GI50 (HCT-116): 1.24 µM (inactive) | GI50 (RPMI-8226): 2.4 µM (inactive) | GI50 (SN12C): 1.43 µM (inactive) | GI50 (Hs-578T): 2.32 µM (inactive) | GI50 (MDA-N): 1.5 µM (inactive) | GI50 (UACC-62): 1.75 µM (inactive) | GI50 (NCI-H522): 0.769 µM (active) | GI50 (A549): 0.526 µM (active) | GI50 (M14): 1.45 µM (inactive) | GI50 (NCI/ADR-RES): 2.56 µM (inactive) | GI50 (OVCAR-5): 3.05 µM (inactive) | GI50 (SNB-75): 1.22 µM (inactive) | GI50 (SNB-19): 2.9 µM (inactive) | GI50 (CCRF-CEM): 26.5 µM (inactive) | GI50 (CAKI-1): 1.2 µM (inactive) | GI50 (TK-10): 4.83 µM (inactive) | GI50 (T47D): 3.23 µM (inactive) | GI50 (786-0): 0.455 µM (active) | GI50 (HL-60): 6.05 µM (inactive) | GI50 (SK-MEL-2): 1.63 µM (inactive) | GI50 (KM12): 1.64 µM (inactive) | GI50 (SF-268): 0.946 µM (active) | GI50 (IGROV-1): 1.37 µM (inactive) | GI50 (MCF7): 0.453 µM (active) | GI50 (OVCAR-3): 1.79 µM (inactive) | GI50 (SK-MEL-28): 1.41 µM (inactive) | GI50 (SK-MEL-5): 0.568 µM (active) | GI50 (RXF 393): 0.543 µM (active) | GI50 (MDA-MB-231): 2.01 µM (inactive) | GI50 (NCI-H460): 0.218 µM (active) | GI50 (DU-145): 0.351 µM (active) | GI50 (HCC 2998): 0.311 µM (active) | GI50 (NCI-H226): 2 µM (inactive)

C=CC[C@]12C[C@@H](C(=O)OC)N(C(=O)OC)[C@H]1N(S(=O)(=O)c1ccccc1)c1ccccc12
GI50 (HT-29): > 100 µM (inactive) | GI50 (PC-3): 34.6 µM (inactive) | GI50 (BT-549): > 100 µM (inactive) | GI50 (UACC-257): 45.7 µM (inactive) | GI50 (Malme-3M): 91.8 µM (inactive) | GI50 (OVCAR-4): 47.1 µM (inactive) | GI50 (NCI-H23): 34.1 µM (inactive) | GI50 (MDA-MB-435): 28.2 µM (inactive) | GI50 (ACHN): 95.1 µM (inactive) | GI50 (HCT-15): 40.1 µM | GI50 (SF-539): > 100 µM (inactive) | GI50 (UO-31): 56 µM (inactive) | GI50 (A498): 81.1 µM (inactive) | GI50 (SR): 38.4 µM (inactive) | GI50 (K562): 41.1 µM (inactive) | GI50 (U-251): 61.9 µM (inactive) | GI50 (OVCAR-8): > 100 µM (inactive) | GI50 (SW-620): > 100 µM (inactive) | GI50 (HOP-92): 42.6 µM (inactive) | GI50 (SK-OV-3): 35.6 µM (inactive) | GI50 (MOLT-4): 33 µM (inactive) | GI50 (HCT-116): 62.2 µM (inactive) | GI50 (RPMI-8226): 44.3 µM (inactive) | GI50 (SN12C): 89.7 µM (inactive) | GI50 (Hs-578T): 42.9 µM (inactive) | GI50 (MDA-N): 41.8 µM (inactive) | GI50 (NCI-H522): 42.3 µM (inactive) | GI50 (A549): 88.5 µM (inactive) | GI50 (NCI/ADR-RES): 68.2 µM (inactive) | GI50 (OVCAR-5): 31.4 µM (inactive) | GI50 (SNB-75): 21.5 µM (inactive) | GI50 (SNB-19): > 100 µM (inactive) | GI50 (CCRF-CEM): 82.6 µM (inactive) | GI50 (CAKI-1): > 100 µM (inactive) | GI50 (TK-10): > 100 µM (inactive) | GI50 (HOP-62): > 100 µM (inactive) | GI50 (T47D): 30.9 µM (inactive) | GI50 (786-0): > 100 µM (inactive) | GI50 (HL-60): 29.6 µM (inactive) | GI50 (SK-MEL-2): 42.3 µM (inactive) | GI50 (KM12): 85.5 µM (inactive) | GI50 (SF-268): 78.2 µM (inactive) | GI50 (IGROV-1): 43.1 µM (inactive) | GI50 (MCF7): 41.3 µM (inactive) | GI50 (OVCAR-3): 87.9 µM (inactive) | GI50 (SK-MEL-28): > 100 µM (inactive) | GI50 (SK-MEL-5): 58.5 µM (inactive) | GI50 (EKVX): 31.2 µM (inactive) | GI50 (RXF 393): 26 µM (inactive) | GI50 (MDA-MB-231): 36.2 µM (inactive) | GI50 (NCI-H460): 73.8 µM (inactive) | GI50 (DU-145): 33.5 µM (inactive) | GI50 (HCC 2998): 44.2 µM (inactive) | GI50 (NCI-H226): > 100 µM (inactive)

N#Cc1ccc(/N=N/N2CCCC2)cc1
GI50 (SF-295): > 100 µM (inactive) | GI50 (PC-3): 83.8 µM (inactive) | GI50 (BT-549): > 100 µM (inactive) | GI50 (UACC-257): > 100 µM (inactive) | GI50 (OVCAR-4): 98.9 µM (inactive) | GI50 (NCI-H23): 95.1 µM (inactive) | GI50 (MDA-MB-435): > 100 µM (inactive) | GI50 (ACHN): > 100 µM (inactive) | GI50 (HCT-15): > 100 µM | GI50 (SF-539): > 100 µM (inactive) | GI50 (UO-31): 69.8 µM (inactive) | GI50 (A498): 96.8 µM (inactive) | GI50 (SR): 15.2 µM (inactive) | GI50 (COLO 205): > 100 µM (inactive) | GI50 (K562): 91 µM (inactive) | GI50 (U-251): > 100 µM (inactive) | GI50 (OVCAR-8): > 100 µM (inactive) | GI50 (SW-620): > 100 µM (inactive) | GI50 (HOP-92): > 100 µM (inactive) | GI50 (LOX IMVI): > 100 µM (inactive) | GI50 (SK-OV-3): > 100 µM (inactive) | GI50 (MOLT-4): 61.2 µM (inactive) | GI50 (HCT-116): > 100 µM (inactive) | GI50 (RPMI-8226): 40.2 µM (inactive) | GI50 (SN12C): > 100 µM (inactive) | GI50 (Hs-578T): > 100 µM (inactive) | GI50 (MDA-N): > 100 µM (inactive) | GI50 (UACC-62): > 100 µM (inactive) | GI50 (NCI-H522): > 100 µM (inactive) | GI50 (M14): > 100 µM (inactive) | GI50 (NCI/ADR-RES): > 100 µM (inactive) | GI50 (OVCAR-5): > 100 µM (inactive) | GI50 (SNB-75): > 100 µM (inactive) | GI50 (SNB-19): > 100 µM (inactive) | GI50 (CCRF-CEM): 43.7 µM (inactive) | GI50 (CAKI-1): > 100 µM (inactive) | GI50 (TK-10): 95.9 µM (inactive) | GI50 (HOP-62): > 100 µM (inactive) | GI50 (T47D): > 100 µM (inactive) | GI50 (786-0): > 100 µM (inactive) | GI50 (HL-60): 91.2 µM (inactive) | GI50 (SK-MEL-2): > 100 µM (inactive) | GI50 (KM12): > 100 µM (inactive) | GI50 (SF-268): > 100 µM (inactive) | GI50 (IGROV-1): > 100 µM (inactive) | GI50 (MCF7): > 100 µM (inactive) | GI50 (OVCAR-3): > 100 µM (inactive) | GI50 (SK-MEL-5): 86.3 µM (inactive) | GI50 (EKVX): 63.8 µM (inactive) | GI50 (RXF 393): > 100 µM (inactive) | GI50 (MDA-MB-231): > 100 µM (inactive) | GI50 (NCI-H460): > 100 µM (inactive) | GI50 (DU-145): 20.8 µM (inactive) | GI50 (HCC 2998): > 100 µM (inactive) | GI50 (NCI-H226): > 100 µM (inactive)

From ChEMBL document CHEMBL1201862, “PubChem BioAssay data set” (2004)
